The text below walks through data of PMC10790670 (Environmental science & technology, 2023).

Series [1] in a line: Serum PFAS measurement by LC-HRMS, GenX Exposure Study participants. Conditions: human, in vivo.
The conditions of series [2]: predicted values from EPA Chemistry Dashboard; cited from earlier work.
The conditions of series [3]: cited from earlier work; for published half-lives: biological half-lives quoted in abstract.
The conditions of series [4]: experimental values from EPA Chemistry Dashboard; cited from earlier work.
The conditions of series [5]: both, human, in vivo.
The mark [6] stands for this setting: weighted average, ref Zhang et al. 16.
Where [7] appears, read: literature serum half-life, ref Li et al. 12.
Where [8] appears, read: literature serum half-life, ref Li et al. 19.

Several values for one entry are separate records, joined by “and”; a condition that tells them apart may be missing. Equal entries are not always repeated. Where two headings read alike, the source gives them in different places. Marks after values point to notes of the source that are not given here.

`O=S(=O)(O)C(F)(F)C(F)(F)OC(F)C(F)(F)F` (stereo not shown) [NVHOS, 1,1,2,2-tetrafluoro-2-(1,2,2,2-tetrafluoroethoxy)ethanesulfonic acid] yielded a concentration at 5 months in series [1] of 1.14 ng/mL. In addition, the logKow in series [2] is reported as 2.58^a.
Turning to `O=C(O)C(F)(F)C(F)(F)C(F)(F)C(F)(F)C(F)(F)C(F)(F)C(F)(F)C(F)(F)C(F)(F)C(F)(F)F` [PFUnA], the half-life in series [3] (setting [6]) is given as 3743^i days. Also, in series [4], the logKow is reported as 4.00^b.
As for `O=S(=O)(O)C(F)(F)C(F)(F)C(F)(F)C(F)(F)C(F)(F)C(F)(F)C(F)(F)C(F)(F)F` [PFOS, perfluorooctanesulfonic acid], the published half-lives in series [3] was 800 to 1200 days. The half-life in series [3] (setting [7]) is given as 1241^d days. The logKow in series [4] was 5.61^b.
In the case of `O=C(O)C(F)(F)OC(F)(F)OC(F)(F)OC(F)(F)OC(F)(F)OC(F)(F)F` [PFO5DoA, perfluoro-3,5,7,9,11-pentaoxadodecanoic acid], in series [5], the “effect of age on concentration” value is listed as 0.0160 ^* ng/mL/year and the “effect of gender concentration in males” value was 0.298 ng/mL. In series [1], this compound displayed a concentration at 5 months of 12.4 ng/mL and a concentration at 11 months of 8.91 ng/mL.
Take `O=C(O)C(F)(F)OC(F)(F)OC(F)(F)OC(F)(F)OC(F)(F)F` [PFO4DA, perfluoro-3,5,7,9-tetraoxadecanoic acid]: in series [5], the “effect of age on concentration” value was determined as 0.0129 ng/mL/year and the “effect of gender concentration in males” value came to 0.376 ng/mL. In series [1], this compound yielded a concentration at 5 months of 5.6 ng/mL and a concentration at 11 months of 1.16 ng/mL. Further, in series [2], the logKow is given as 8.53^a.
With `O=C(O)C(F)(F)C(F)(F)C(F)(F)C(F)(F)C(F)(F)C(F)(F)C(F)(F)C(F)(F)F` [PFNA, perfluorononanoic acid], the half-life in series [3] (setting [6]) is recorded as 1417^i days. The logKow in series [4] is 3.54^b.
With `O=C(O)C(F)(F)C(F)(F)C(F)(F)C(F)(F)C(F)(F)C(F)(F)C(F)(F)C(F)(F)C(F)(F)F` [PFDA], the half-life in series [3] (setting [6]) was 3743^i days. The logKow in series [4] is given as 4.15^b.
`O=S(=O)(O)C(F)(F)C(F)(F)C(F)(F)C(F)(F)C(F)(F)F` [PFPeS]: in series [3] (setting [8]), the half-life is listed as 343^e days. Besides, the logKow in series [2] was 3.38^a.
Take `O=C(O)C(F)(OC(F)(F)C(F)(F)C(F)(F)F)C(F)(F)F` (stereo not shown) [GenX, hexafluoropropylene oxide dimer acid]: the half-life was 81 h in series [3] (in workers, ECHA estimate); 3.375^f days and 3.38^e days in series [3] (values from ECHA report). Also, the logKow in series [2] was 5.13^a.
With `O=S(=O)(O)C(F)(F)C(F)(F)C(F)(F)C(F)(F)C(F)(F)C(F)(F)C(F)(F)F` [PFHpS], the half-life in series [3] (setting [8]) is 533^e days. For the same compound, the logKow in series [2] is given as 4.85^a.
In turn, `O=C(O)C(F)(F)OC(F)(F)OC(F)(F)OC(F)(F)F` [PFO3OA, perfluoro-3,5,7-trioxaoctanoic acid] had a concentration at 5 months in series [1] of 1.02 ng/mL. Besides, in series [2], the logKow was 6.07^a.
As to `O=C(O)C(F)(F)C(F)(F)C(F)(F)C(F)(F)C(F)(F)C(F)(F)C(F)(F)F` [PFOA, perfluorooctanoic acid], the published half-lives in series [3] is 800 to 1200 days. Besides, the results for the half-life in series [3] (setting [7]) and in series [3] (setting [8]) were 902^c days and 902^e days, respectively. Further, in series [4], the logKow is 3.1^b.
As for `O=C(O)C(F)(F)C(F)(F)C(F)(F)C(F)(F)C(F)(F)F` [PFHxA, perfluorohexanoic acid], in series [3], the published half-lives is 30 to 60 days. Further, the half-life in series [3] (ref Russel et al. 52) is given as 32^g days. In addition, the logKow in series [2] is 2.8^a.
Consider `O=C(O)C(F)(F)C(F)(F)C(F)(F)C(F)(F)C(F)(F)C(F)(F)F` [PFHpA, perfluoroheptanoic acid], for which the published half-lives in series [3] is 30 to 60 days. The half-life in series [3] (setting [6]) is listed as 464^i days. In addition, the logKow in series [4] is 2.05^b.
Regarding `O=S(=O)(O)C(F)(F)C(F)(F)C(F)(F)C(F)(F)C(F)(F)C(F)(F)F` [PFHxS, perfluorohexanesulfonic acid], the half-life in series [3] (setting [8]) is listed as 1661^e days. In addition, the logKow in series [2] is listed as 3.48^a.
With `O=S(=O)(O)C(F)(F)C(F)(F)C(F)(F)C(F)(F)F` [PFBS, perfluorobutanesulfonic acid], in series [3] (ref Olsen et al. 54), the half-life is 26^h days. Besides, in series [4], the logKow is listed as 2.76^b.

A word on the half-life: it is how long it takes for the measured level to halve.
